From PubChem BioAssay (NCI)
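Tested at 5 concentrations; 48 h exposure; 96-well plates; endpoints linearly interpolated, else capped at highest concentration. TGI: concentration producing complete growth inhibition.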

Experiments:
Experiment in all cases: DTP human tumour cell line panel, 48 h
[1] = system: SF-539 CNS
[2] = system: T-47D breast
[3] = system: SK-OV-3 ovarian
[4] = system: SK-MEL-28 melanoma
[5] = system: KM12 colon
[6] = system: NCI/ADR-RES ovarian
[7] = system: SK-MEL-5 melanoma
[8] = system: SW-620 colon
[9] = system: IGROV1 ovarian
[10] = system: 786-0 renal
[11] = system: HT29 colon
[12] = system: TK-10 renal
[13] = system: NCI-H522 lung
[14] = system: UACC-62 melanoma
[15] = system: RXF 393 renal
[16] = system: EKVX NSCLC
[17] = system: DU-145 prostate
[18] = system: SF-295 CNS
[19] = system: NCI-H460 lung
[20] = system: ACHN renal
[21] = system: OVCAR-5 ovarian
[22] = system: OVCAR-8 ovarian
[23] = system: HS 578T breast
[24] = system: HCT-15 colon
[25] = system: SNB-19 CNS
[26] = system: UACC-257 melanoma
[27] = system: OVCAR-3 ovarian
[28] = system: MCF7 breast
[29] = system: K-562 leukemia
[30] = system: OVCAR-4 ovarian
[31] = system: UO-31 renal
[32] = system: NCI-H23 lung
[33] = system: COLO 205 colon
[34] = system: HCC-2998 colon
[35] = system: HOP-62 NSCLC
[36] = system: SN12C renal
[37] = system: MOLT-4 leukemia
[38] = system: CCRF-CEM leukemia
[39] = system: SK-MEL-2 melanoma
[40] = system: PC-3 prostate
[41] = system: SNB-75 CNS
[42] = system: M14 melanoma
[43] = system: A549 NSCLC
[44] = system: SF-268 CNS
[45] = system: SR leukemia
[46] = system: CAKI-1 renal
[47] = system: MDA-MB-435
[48] = system: U251 CNS
[49] = system: HL-60(TB) leukemia
[50] = system: HOP-92 NSCLC
[51] = system: MALME-3M melanoma
[52] = system: HCT-116 colon
[53] = system: RPMI-8226 leukemia
[54] = system: MDA-MB-231 breast
[55] = system: NCI-H226 lung
[56] = system: LOX IMVI melanoma
[57] = system: A498 renal
[58] = system: BT-549 breast

CSC(=NC#N)S/C=C/C(=O)c1ccc(Cl)cc1
TGI [1]: 52.3 µM
TGI [2]: 75.1 µM
TGI [3]: > 100 µM
TGI [4]: 46.5 µM
TGI [5]: > 100 µM
TGI [6]: 63.1 µM
TGI [7]: 32.7 µM
TGI [8]: 40.6 µM
TGI [9]: 44.2 µM
TGI [10]: 40.8 µM
TGI [11]: 46.4 µM
TGI [12]: 58.5 µM
TGI [13]: 38.5 µM
TGI [14]: 74.4 µM
TGI [15]: 42.4 µM
TGI [16]: > 100 µM
TGI [17]: > 100 µM
TGI [18]: 95.5 µM
TGI [19]: > 100 µM
TGI [20]: > 100 µM
TGI [21]: 99.8 µM
TGI [22]: 47.4 µM
TGI [23]: 75.9 µM
TGI [24]: > 100 µM
TGI [25]: > 100 µM
TGI [26]: 52.2 µM
TGI [27]: 34.7 µM
TGI [28]: 79.3 µM
TGI [29]: > 100 µM
TGI [30]: > 100 µM
TGI [31]: 45.4 µM
TGI [32]: 52.4 µM
TGI [33]: 71.6 µM
TGI [34]: > 100 µM
TGI [35]: > 100 µM
TGI [36]: 84.7 µM
TGI [37]: > 100 µM
TGI [38]: > 100 µM
TGI [39]: 45 µM
TGI [40]: > 100 µM
TGI [41]: > 100 µM
TGI [42]: 45.1 µM
TGI [43]: > 100 µM
TGI [44]: 62.2 µM
TGI [45]: 12.6 µM
TGI [46]: 35.6 µM
TGI [47]: 64.3 µM
TGI [48]: > 100 µM
TGI [49]: > 100 µM
TGI [50]: > 100 µM
TGI [51]: 55.5 µM
TGI [52]: 34.5 µM

COC1(OC)CC(CO)(CNc2nc(N)nc(Cl)c2C=O)C1
TGI [1]: > 100 µM
TGI [4]: > 100 µM
TGI [5]: > 100 µM
TGI [6]: 88.1 µM
TGI [7]: > 100 µM
TGI [8]: > 100 µM
TGI [9]: 48.3 µM
TGI [10]: > 100 µM
TGI [11]: > 100 µM
TGI [12]: > 100 µM
TGI [13]: 3.96 µM
TGI [15]: > 100 µM
TGI [16]: 52.2 µM
TGI [17]: > 100 µM
TGI [18]: > 100 µM
TGI [19]: > 100 µM
TGI [20]: 13 µM
TGI [53]: > 100 µM
TGI [21]: > 100 µM
TGI [22]: > 100 µM
TGI [23]: > 100 µM
TGI [24]: > 100 µM
TGI [25]: > 100 µM
TGI [26]: 71.6 µM
TGI [27]: > 100 µM
TGI [28]: > 100 µM
TGI [29]: 32.1 µM
TGI [30]: 90.4 µM
TGI [31]: > 100 µM
TGI [32]: 48.5 µM
TGI [33]: > 100 µM
TGI [34]: 84.5 µM
TGI [35]: > 100 µM
TGI [36]: > 100 µM
TGI [37]: 60.1 µM
TGI [38]: > 100 µM
TGI [54]: 43.9 µM
TGI [55]: > 100 µM
TGI [40]: 77.4 µM
TGI [41]: > 100 µM
TGI [56]: 35.2 µM
TGI [43]: > 100 µM
TGI [57]: > 100 µM
TGI [44]: > 100 µM
TGI [58]: > 100 µM
TGI [45]: 79.5 µM
TGI [46]: > 100 µM
TGI [47]: 85.9 µM
TGI [48]: > 100 µM
TGI [49]: 35.8 µM
TGI [50]: 36.2 µM
TGI [51]: > 100 µM
TGI [52]: > 100 µM
